Measured values taken from patent publication US12378277B2, “SGLTS/DPP4 inhibitor and application thereof” (DONGBAO PURPLE STAR (HANGZHOU) BIOPHARMACEUTICAL CO., LTD., priority 2019, dated 2025).
pIC50: −log10 of the molar value. Marks after values point to notes of the source that are not given here.

Assays:
[1] = target: recombinant human dipeptidyl peptidase 4 (rhDPP4) (Homo sapiens (Human), UniProt P27487); experiment: rhDPP4 inhibitor screening experiment; type: biochemical; conditions: Gly-Pro-aminoluciferin substrate, luminescence, room temperature 1 hour
recombinant human dipeptidyl peptidase 4 (rhDPP4), sequence (P27487 whole entry): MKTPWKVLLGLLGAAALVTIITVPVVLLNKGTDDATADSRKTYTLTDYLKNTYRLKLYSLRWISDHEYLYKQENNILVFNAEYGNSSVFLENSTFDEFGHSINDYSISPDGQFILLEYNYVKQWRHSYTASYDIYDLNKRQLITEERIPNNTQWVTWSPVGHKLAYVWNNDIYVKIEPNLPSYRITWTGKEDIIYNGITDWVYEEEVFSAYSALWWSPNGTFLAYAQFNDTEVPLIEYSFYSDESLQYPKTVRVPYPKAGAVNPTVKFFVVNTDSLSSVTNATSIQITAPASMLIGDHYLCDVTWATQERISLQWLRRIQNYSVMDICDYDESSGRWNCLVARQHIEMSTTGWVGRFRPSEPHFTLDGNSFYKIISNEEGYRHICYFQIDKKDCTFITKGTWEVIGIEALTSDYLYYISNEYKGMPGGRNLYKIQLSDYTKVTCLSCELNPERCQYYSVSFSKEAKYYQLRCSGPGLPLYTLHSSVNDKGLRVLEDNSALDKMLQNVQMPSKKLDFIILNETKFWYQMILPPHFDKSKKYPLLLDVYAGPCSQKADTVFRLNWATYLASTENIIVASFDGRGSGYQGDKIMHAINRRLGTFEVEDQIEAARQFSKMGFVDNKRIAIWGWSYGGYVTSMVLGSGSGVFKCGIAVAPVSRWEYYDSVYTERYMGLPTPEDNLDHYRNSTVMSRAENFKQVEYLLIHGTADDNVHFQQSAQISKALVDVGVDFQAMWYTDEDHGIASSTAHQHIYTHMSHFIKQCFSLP
Procedure: 9) The data was calculated by GraphPad Prism 5.0 software: log(inhibitor) vs. response—Variable slope to obtain the IC50 value of the test compound. The experimental results were shown in Table 3. • Biological activity experiment 3: rhDPP4 inhibitor screening experiment 1. Experimental Purpose:
The inhibitory activity of the compounds on recombinant human dipeptidyl peptidase 4 (rhDPP4) was evaluated by measuring the median inhibitory concentration (IC50) value of the compounds. In this experiment, rhDPP4 was used to catalyze a substrate to produce luciferin, and reacted with luciferase to produce light signals, wherein the substrate is the luminescent precursor glycine-proline-[…] (Gly-Pro-aminoluciferin). The intensity of the light signal is directly proportional to the enzyme activity.
1) 250 nL of gradient diluted compound (4 times dilution, 10 detection concentrations) was transferred to a 384-well plate (PerkingElmer-6007299) using a non-contact nano-upgraded acoustic pipetting system (ECHO). The concentration of dimethylsulfoxide (DMSO) concentration was 0.5% in the final reaction system. Blank control wells (containing DMSO, substrate and 10 mM of tris(hydroxymethyl)aminomethane hydrochlorid (Tris-HCl)) and positive control wells (containing DMSO, substrate and rhDPP4) were set.
2) The pre-packed frozen buffer containing luciferase was taken out and restored to room temperature, and then added with substrate to prepare a working solution with a substrate concentration of 20 μM. The rhDPP4 was prepared as a 0.2 ng/mL working solution with 10 mM Tris-HCl (pH8.0) aqueous solution.
3) 25 μL of working solution containing 20 μM substrate and 25 μL of working solution containing 0.2 ng/mL rhDPP4 were added to the 384-well plate with the compound added already. The plate was centrifuged at 1000 rpm for 30 s. The plate was sealed with aluminum foil sealing film and incubated at room temperature for 1 hour.
4) The light signal intensity was detected with a multi-function enzyme label detector EnVision. […]

Human-SGLT1 = Human-SGLT1 (Homo sapiens (Human), UniProt P13866); experiment: SGLT1 glucose transport test; type: cell-based; conditions: cells stably expressing Human-SGLT1; [14C]-labeled methyl α-D-glucopyranoside uptake, 37° C., 2 hours
Human-SGLT1, sequence (P13866 whole entry): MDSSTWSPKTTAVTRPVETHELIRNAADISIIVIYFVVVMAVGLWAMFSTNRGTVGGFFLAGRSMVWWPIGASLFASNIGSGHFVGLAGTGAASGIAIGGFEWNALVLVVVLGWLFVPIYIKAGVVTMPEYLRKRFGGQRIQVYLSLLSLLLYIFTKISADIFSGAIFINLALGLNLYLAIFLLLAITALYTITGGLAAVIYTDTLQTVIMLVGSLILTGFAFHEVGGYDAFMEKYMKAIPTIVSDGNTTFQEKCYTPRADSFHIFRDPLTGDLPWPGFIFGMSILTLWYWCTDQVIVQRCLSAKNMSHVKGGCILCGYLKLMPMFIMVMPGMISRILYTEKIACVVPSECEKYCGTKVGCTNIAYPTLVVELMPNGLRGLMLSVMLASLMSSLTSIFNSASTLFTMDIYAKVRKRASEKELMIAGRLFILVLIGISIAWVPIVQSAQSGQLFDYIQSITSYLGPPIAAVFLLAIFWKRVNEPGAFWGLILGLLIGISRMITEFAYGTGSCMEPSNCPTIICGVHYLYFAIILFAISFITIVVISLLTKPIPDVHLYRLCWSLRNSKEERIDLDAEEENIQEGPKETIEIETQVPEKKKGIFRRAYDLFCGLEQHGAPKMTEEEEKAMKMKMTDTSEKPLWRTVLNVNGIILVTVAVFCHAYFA
Procedure: • Biological activity experiment 1: SGLT1 glucose transport test 1. Experimental Purpose:
The effect of the compound on the glucose transport activity of the SGLT1 transporter was detected through measuring the amount of [^14C]-labeled glucose entering the cells with high expression of Human-SGLT1.
The cells stably expressing Human-SGLT1 used in the experiment were constructed by Shanghai WuXi AppTec. The SGLT1 cells were plated on a Cytostar-T (PerkinElmer) 96-well cell culture plate, and cultured overnight at 5% CO2 at 37° C.
2.2. SGLT1 Glucose Transport Test
1) Experimental buffer: 10 mM 4-hydroxyethylpiperazine ethanesulfonic acid (HEPES), 1.2 mM magnesium chloride (MgCl2), 4.7 mM potassium chloride (KCl), 2.2 mM calcium chloride (CaCl2) and 120 mM sodium chloride (NaCl).
2) The compound was diluted with 100% dimethyl sulfoxide (DMSO) with 1 mM as the starting concentration and 8 points of 5-fold serial dilutions.
3) 3 μM [^14C]-labeled methyl α-D-glucopyranoside was prepared with experimental buffer.
4) The cells were treated with 49 μL of experimental buffer, 1 μL of the compound which was gradient diluted, and 50 μL of 3 μM [^14C] isotope-labeled sugar solution at 37° C. for 2 hours.
5) The isotope detector (Micro beta Reader) was used to read.
6) The data was calculated by GraphPad Prism 5.0 software: log(inhibitor) vs. response—Variable slope to obtain the IC50 value of the test compound. The experimental results were shown in Table 3. • Biological activity experiment 2: SGLT2 glucose transport test 1.

Human-SGLT2 = Human-SGLT2 (Homo sapiens (Human), UniProt P31639); experiment: SGLT2 glucose transport test; type: cell-based; conditions: cells stably expressing Human-SGLT2; [14C]-labeled methyl α-D-glucopyranoside uptake, 37° C., 2 hours
Human-SGLT2, sequence (P31639 whole entry): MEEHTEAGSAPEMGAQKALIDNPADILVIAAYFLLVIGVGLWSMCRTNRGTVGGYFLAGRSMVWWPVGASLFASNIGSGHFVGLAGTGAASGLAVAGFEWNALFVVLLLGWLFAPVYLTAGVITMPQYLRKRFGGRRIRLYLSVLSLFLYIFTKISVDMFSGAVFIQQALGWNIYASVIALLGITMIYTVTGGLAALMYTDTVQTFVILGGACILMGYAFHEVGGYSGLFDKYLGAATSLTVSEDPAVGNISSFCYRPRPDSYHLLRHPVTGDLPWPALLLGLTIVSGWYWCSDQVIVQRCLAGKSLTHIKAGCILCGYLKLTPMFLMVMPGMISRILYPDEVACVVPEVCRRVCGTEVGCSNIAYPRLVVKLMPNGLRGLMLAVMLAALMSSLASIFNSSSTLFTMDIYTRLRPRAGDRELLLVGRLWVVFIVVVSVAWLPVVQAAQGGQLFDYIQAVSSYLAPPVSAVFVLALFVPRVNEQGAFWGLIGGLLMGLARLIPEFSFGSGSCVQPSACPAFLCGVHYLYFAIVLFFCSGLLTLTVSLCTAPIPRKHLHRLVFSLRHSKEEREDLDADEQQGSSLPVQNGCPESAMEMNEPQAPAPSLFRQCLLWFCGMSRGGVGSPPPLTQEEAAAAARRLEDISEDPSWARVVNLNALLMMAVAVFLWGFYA
Procedure: 6) The data was calculated by GraphPad Prism 5.0 software: log(inhibitor) vs. response—Variable slope to obtain the IC50 value of the test compound. The experimental results were shown in Table 3. • Biological activity experiment 2: SGLT2 glucose transport test 1. Experimental Purpose:
The effect of the compound on the glucose transport activity of the SGLT2 transporter was detected through measuring the amount of [^14C]-labeled glucose entering the cells with high expression of Human-SGLT2.
The cells stably expressing Human-SGLT2 used in the experiment were constructed by Shanghai WuXi AppTec. The SGLT2 cells were plated on a 96-well cell culture plate (Greiner) and cultured overnight at 5% CO2 at 37° C.
2.2. SGLT2 Glucose Transport Test
1) Experimental buffer: 10 mM 4-hydroxyethylpiperazine ethanesulfonic acid (HEPES), 1.2 mM magnesium chloride (MgCl2), 4.7 mM potassium chloride (KCl), 2.2 mM calcium chloride (CaCl2)) and 120 mM sodium chloride (NaCl).
2) Termination buffer: 10 mM 4-hydroxyethylpiperazine ethanesulfonic acid (HEPES), 1.2 mM magnesium chloride (MgCl2), 4.7 mM potassium chloride (KCl), 2.2 mM calcium chloride (CaCl2), 120 mM sodium chloride (NaCl) and 1 μM LX4211.
3) The compound was diluted with 100% dimethyl sulfoxide (DMSO) with a starting concentration of 10 μM and 8 points of 5-fold serial dilution.
4) 6 μM [^14C]-labeled methyl α-D-glucopyranoside was prepared with experimental buffer.
5) The cells were treated with 49 μL of experimental buffer, 1 μL of gradient diluted compound, and 50 μL of 6 μM [^14C]isotope-labeled sugar solution at 37° C. for 2 hours.
6) The liquid in the well was aspirated and the cells were rinsed 3 times with termination buffer.
7) The cells were lysed with 50 μL of 10% sodium hydroxide solution, the cell lysate was aspirated into the scintillation tube, and 2 mL of scintillation fluid was added.
8) An isotope detector (Tricarb) was used to read.
9) The data was calculated by GraphPad Prism 5.0 software: log(inhibitor) vs. response—Variable slope to obtain the IC50 value of the test compound. The experimental results were shown in Table 3. • Biological activity experiment 3: rhDPP4 inhibitor screening experiment 1.

SD rat = experiment: Rat oral glucose tolerance test (OGTT) in vivo; conditions: 10 mg/kg single gavage
Procedure: 1. Animal: [table] 2. Experiment Grouping: [table] Experiment Process: 1. Animal Adaptation and Preparation: The experimental animals needed to be acclimatized in the animal room for 1 week after arriving at the facility. 2. Fasting and Administration The animals were fasted for 18 h in the metabolic cage, and drugs or solvents (2 mL/kg) were given according to the above table, and then 50% glucose solution (2 g/kg, 4 mL/kg) was administrated immediately. 3. Urine and Blood Sugar Test Two hours after the animals were given sugar, they resumed eating. The time points of 0 min, 15 min, 30 min, 45 min, 60 min and 120 min were collected for blood glucose determination; urine during 0-24 h was used for urine sugar (mg/200 g) and urine volume test respectively. 4. Data Analysis: All values will be expressed as average values. Statistical analysis was evaluated using Graphpad Prism 6 one-way analysis of variance Tukey's multiple comparison test. P value of less than 0.05 was considered of statistically significant.

| SMILES | pIC50 [1] | pIC50 (Human-SGLT1) | pIC50 (Human-SGLT2) | OGTT glucose level AUC0-2 hr (SD rat; then 50% glucose solution 2 g/kg, solvent control group 1079) [mmol/L/min] | Urine sugar level (SD rat; urine during 0-24 h, solvent control group 0.4) | Urine volume (SD rat; urine during 0-24 h, solvent control group 16.8) |
| --- | --- | --- | --- | --- | --- | --- |
| CS[C@H]1O[C@@H](c2ccc(C(C)C)c(Cc3ccc(O[C@@H]4CCN([C@H]5CO[C@H](c6cc(F)ccc6F)[C@@H](N)C5)C4)cc3)c2)[C@H](O)[C@@H](O)[C@@H]1O [WXD012] | 6.50 | 7.95 | 8.21 |  |  |  |
| CCc1ccc([C@@H]2O[C@H](SC)[C@@H](O)[C@H](O)[C@H]2O)cc1Cc1ccc(OC2CCN(C3CO[C@H](c4cc(F)ccc4F)[C@@H](N)C3)CC2)cc1 (some centres unmarked) [WXD007] | 6.29 | 8.47 | 8.84 |  |  |  |
| CCOc1ccc(Cc2cc([C@@H]3O[C@H](SC)[C@@H](O)[C@H](O)[C@H]3O)ccc2Cl)cc1 [Soagliflozin, Sotagliflozin] |  |  |  | 917 | 2913**** mg/200 g BW | 32.2**** mL/200 g BW |
| CCc1ccc([C@@H]2O[C@H](SC)[C@@H](O)[C@H](O)[C@H]2O)cc1Cc1ccc(O[C@@H]2CCN([C@H]3CO[C@H](c4cc(F)ccc4F)[C@@H](N)C3)C2)c(C)c1 [WXD011] |  | 7.35 | 7.99 |  |  |  |
| CCc1ccc([C@@H]2O[C@H](SC)[C@@H](O)[C@H](O)[C@H]2O)cc1Cc1ccc(O[C@@H]2CCN([C@H]3CO[C@H](c4cc(F)ccc4F)[C@@H](N)C3)C2)c(C)c1 [WXD010] | 6.78 | 6.84 | 7.67 |  |  |  |
